# Data: patent publication EP2522331A1, “Use of resveratrol and niacinamide” (DSM IP Assets B.V., priority 2011, dated 2012)
# Read-outs that look alike come from different tables or passages of the source.
# Test system: MYO5A
# Assay: Gene modulation (RT-qPCR, PCR array mQPA H-Melanocyte-64) in normal human epidermal melanocytes (NHEM)
# Assay type: cell-based
# Conditions: NHEM cells
# Description: Normal human epidermal melanocytes were cultivated for 24 hours. Culture medium was then removed and replaced by fresh medium containing the active ingredient to be evaluated or exempt of it (control). Cells were cultivated for additional 72 hours. All experimental conditions were performed in triplicate.
# At the end of the cultivation, the cells were harvested and washed with phosphate buffered saline (PBS) solution and immediately frozen at -80 °C. The expression of selected markers was analyzed using RT-qPCR method on mRNA extracted from cells layer for each treatment condition. The differential expression analysis was performed by PCR arrays of the screening format "mQPA H-Melanocyte-64", which focuses on 64 genes selected for their importance in pigmentation and melanocyte biology.
# Total RNA was extracted from each sample using TRI-Reagent®. The amount and quality of the RNA was evaluated using a lab-on-a-chip Bioanalyzer (Agilent technologies). Potential contaminants traces of DNA were removed […] The incorporation of fluorescence in amplified DNA was measured continuously during the PCR cycles. […] The value selected for RE calculations is the "output point" (Ct) of the fluorescence curve. For a given marker, the highest is the cycle number; the lowest, is the mRNA quantity. The RE value is expressed in arbitrary units (AU) according to the equation: (((1)/(2)))^NC x 10^6 [formula] Where NC is the number of cycles.
# The analysis of the gene expression of selected melanogenesis genes in NEHM cells treated with resveratrol (5 micrograms/ml) on one side, and Niaciamide (0.5 mg/ml) on the other side, has been compared with the gene expression of the same selected melanogenesis genes in NEHM cells treated with a combination of resveratrol (5 micrograms/ml) and Niaciamide (0.5 mg/ml).
# [1] = 72 hours treatment, resveratrol 5 µg/ml, niacinamide 0.5 mg/ml, combination 5 µg/ml + 0.5 mg/ml, read-out: MYO5A (expression ratio compared to control)
# [2] = 72 hours, resveratrol 5 micrograms/ml alone or niacinamide 0.5 mg/ml alone, read-out: down-regulation of MYO5A (signed change when compared to untreated cells)
Compound,inhibition at 5 µg/mL [1],inhibition at 5 µg/mL [2],inhibition at 500 µg/mL [1],inhibition at 500 µg/mL [2]
"Oc1ccc(C=Cc2cc(O)cc(O)c2)cc1 [Resveratrol, 3,4',5 trihydroxystilbene]",25%,25%,–,–
"NC(=O)c1cccnc1 [Niacinamide, 3-pyridinecarboxamide]",–,–,15%,15%
